Data on 14 molecules can be found in patent US20140343017A1, “PYRROLE COMPOUND” (Kabushiki Kaisha Yakult Honsha, priority 2012, published 2014).

A word on the IC50: it is the point on the concentration scale where inhibition reaches its midpoint.

Where two headings read alike, the source gives them in different places.

The subject of test [1] is human colorectal cancer HT-29 cells. In words: Inhibitory effect on growth of human cancer cells (in vitro), WST-8. The class given is cell-based. Particulars: Homo sapiens, HT-29, 96 h, 96 hours culture, read-out: IC50 (nM) HT29. In outline:
(§1)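 Cells seeded at 1000 cells/well in RPMI1640 with 10% FBS, compounds added after overnight culture, then 96 h exposure. Viability by WST-8, about 1 h at 37 °C, 5% CO2, absorbance read at 450 nm.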

Test [2] relates to human non-small cell lung cancer A549 cells. The test is described as above. It counts as cell-based. Conditions: Homo sapiens, A549, 96 h, 96 hours culture. In outline:
as §1

In test [3] the test system is human colorectal cancer HCT116 cells. The description is as above. Particulars: Homo sapiens, HCT-116, 96 h, 96 hours culture. The class given is cell-based. In outline: as §1
Test [4] relates to human lung cancer NCI-H460 xenograft tumor. As to the kind of experiment: Antitumor effect on growth of human lung cancer NCI-H460 xenograft tumor (in vivo). Also on record: species or system BALB/c nude mice. Particulars: Mus musculus, NCI-H460, iv, 528 h, tail vein, excised tumor weight Day 22, read-out: Inhibition Rate (%). As to the method: Each compound of the present invention was studied for its in vivo antitumor effect using human lung cancer NCI-H460 cell-transplanted mice. An NCI-H460 cell suspension containing 2×10^6 cells was subcutaneously transplanted in an amount of 0.1 mL/mouse to the left groin areas of 6-week-old male BALB/c nude mice. The mice were further raised for approximately 1 week to 10 days and divided into groups (4 mice per group) having equal estimated tumor volumes at the point in time when the tumor size reached approximately 100 to 200 mm^3 (Day 1). Each administration sample was administered at a dose of 10 mL/kg into the tail vein of the mice. The dose and administration schedule of each compound were as described in Table 3. At Day 22, tumor was excised from each mouse. The tumor growth inhibition rate (IR: Inhibition Rate) was calculated from the weight of the excised tumor according to the expression shown below. The Dunnett's test was used in the significant difference test.
Tumor growth inhibition rate (Inhibition Rate, %)=(1−(Excised tumor weight of the administration group)/(Excised tumor weight of the control group))×100
Background: A xenograft is tissue or cells of one species grown in another, often human tumour cells in immunodeficient mice.

Test [5] deals with Human uterus cancer MES-SA cells. As to the kind of experiment: Inhibitory effect on growth of multidrug-resistant cell line, parent line (in vitro). It counts as cell-based. Conditions: 48 hours culture, WST-8. An excerpt: (§2) Each compound of the present invention was studied for its effect on the growth of a multidrug-resistant cell line. A drug efflux pump called P-glycoprotein is well known to be involved in the drug resistance mechanism of the multidrug-resistant line MES-SA/Dx5 used in this experiment. Accordingly, in this experiment, paclitaxel and vincristine, which are proven substrates of P-glycoprotein, were used as control drugs. Human uterus cancer MES-SA cells and their multidrug-resistant line MES-SA/Dx5 cells were suspended in a medium and inoculated at a cell density of 2000 cells/50 μL/well to a 96-well plate. After overnight culture, each test sample diluted with a medium was added thereto at a concentration of 50 μL/well, and the cells were further cultured for 48 hours. After the completion of culture, WST-8 was added thereto at a concentration of 10 μL/well, and the cells were cultured at 37° C. for approximately 1 hour under 5% CO2 conditions, followed by measurement of absorbance at a wavelength of 450 nm. […] The resistance rate was calculated according to the following expression:
(§3) Resistance rate=IC50 value (MES-SA/Dx5)/IC50 value (MES-SA)
(In general: Formazan colour is commonly taken as a measure of viable cells.)

Test [6] relates to multidrug-resistant line MES-SA/Dx5 cells. In words: Inhibitory effect on growth of multidrug-resistant cell line (in vitro). It counts as cell-based, human. Conditions: for IC50: Homo sapiens, MES-SA/Dx5 cells, 48 hours culture, WST-8; for Resistance rate: IC50 value (MES-SA/Dx5)/IC50 value (MES-SA).
From the text: as §2, §3

Setting [7] is: Days 1, 3, 5, 8, 10, 12, 15, 17, 19.
[8] abbreviates: Days 1, 3, 8, 10, 12, 15, 17, 19.

Take `COc1cccc(C(=O)c2c(C)[nH]c(-c3nnn(CCO)n3)c2C)c1` [Compound 107]: the IC50 in test [1] came out at 16.1 nM; in test [2] it was 54.9 nM; in test [3], 27.4 nM. Moreover, the inhibition in vivo at 25 mg/kg in test [4] (setting [7]) was determined as 32.6%.
Consider `COc1ccc(C(=O)c2c(C=O)[nH]c(-c3nnc(C4CC4)o3)c2C)cc1Br` [Compound 263, 3-(3-bromo-4-methoxybenzoyl)-5-(5-cyclopropyl-1,3,4-oxadiazol-2-yl)-4-methyl-1H-pyrrole-2-carboaldehyde], for which the half-inhibitory concentration (IC50) in test [1] came to 32.5 nM; in test [2], 36.5 nM; in test [3] it was 53.8 nM. The inhibition in vivo at 50 mg/kg in test [4] (50 mg/kg, Days 1, 3, 5, 8, 10, 12, 15, 17, 19) was 59.6%.
For `COc1ccc(C(=O)c2c(C)[nH]c(-c3nnn(CCO)n3)c2C)cc1Br` [Compound 110, (3-bromo-4-methoxyphenyl)(5-(2-(2-hydroxyethyl)-2H-tetrazol-5-yl)-2,4-dimethyl-1H-pyrrol-3-yl)methanone], the IC50 was found to be 8.2 nM in test [1]; 39.3 nM in test [2]; 14.2 nM in test [3]; 5.5 nM in test [5]; 22.7 nM in test [6]. In test [6], this molecule showed a Resistance rate of 4.2. For the same molecule, the inhibition in vivo at 12.5 mg/kg in test [4] (setting [7]) came out at 55.8%. In addition, the inhibition in vivo at 18.75 mg/kg in test [4] (18.75 mg/kg, Days 1, 3, 5, 8, 10, 12, 15, 17, 19) was 77.4%.
On to `CC[C@]1(O)C[C@H]2CN(CCc3c([nH]c4ccccc34)[C@@](C(=O)OC)(c3cc4c(cc3OC)N(C=O)[C@H]3[C@@](O)(C(=O)OC)[C@H](OC(C)=O)[C@]5(CC)C=CCN6CC[C@]43[C@@H]65)C2)C1` [Vincristine, vincristine, reference compound], for which the IC50 in test [5] came to 36.2 nM. Besides, in test [6], the IC50 worked out at 2440 nM and the Resistance rate turned out to be 67.5.
`COc1ccc(C(=O)c2c(CO)[nH]c(-c3nnc(C4CC4)o3)c2C)cc1Br` [Compound 266, (3-bromo-4-methoxyphenyl)(5-(5-cyclopropyl-1,3,4-oxadiazol-2-yl)-2-(hydroxymethyl)-4-methyl-1H-pyrrol-3-yl)methanone]: the IC50 in test [1] came out at 2.7 nM; in test [2] it was 4.7 nM; in test [3] it was 1.6 nM. Moreover, the inhibition in vivo at 20 mg/kg in test [4] (setting [7]) is 39.4%.
On to `CCc1nnc(-c2[nH]c(C)c(C(=O)c3cccc(Br)c3)c2C)o1` [Compound 173, (3-bromophenyl)(5-(5-ethyl-1,3,4-oxadiazol-2-yl)-2,4-dimethyl-1H-pyrrol-3-yl)methanone], for which the IC50 in test [1] is 1 nM; in test [2], 5.1 nM; in test [3], 1.1 nM. Besides, in test [4] (setting [7]), the inhibition in vivo at 10 mg/kg was determined as 40.2%.
On to `COc1ccc(C(=O)c2c(C(C)O)[nH]c(-c3nnc(C4CC4)o3)c2C)cc1Br` (centres unmarked) [Compound 268, (3-bromo-4-methoxyphenyl)(5-(5-cyclopropyl-1,3,4-oxadiazol-2-yl)-2-(1-hydroxyethyl)-4-methyl-1H-pyrrol-3-yl)methanone], for which the results for the 50% inhibitory concentration (IC50) in test [1], in test [2] and in test [3] were 5.2 nM, 4.1 nM and 2.5 nM, respectively. Further, in test [4] (setting [7]), the inhibition in vivo at 20 mg/kg is 41.2%.
The matching figures for `COc1ccc(C(=O)c2c(C(F)F)[nH]c(-c3nnc(C4CC4)o3)c2C)cc1Br` [Compound 267, (3-bromo-4-methoxyphenyl) (5-(5-cyclopropyl-1,3,4-oxadiazol-2-yl)-2-(difluoromethyl)-4-methyl-1H-pyrrol-3-yl)methanone]: 10.7 nM, 13 nM, 39 nM and 35.6%.
For `CCn1nnc(-c2[nH]c(C)c(C(=O)c3ccc(OC)c(Br)c3)c2C)n1` [Compound 109, (3-bromo-4-methoxyphenyl)(5-(2-ethyl-2H-tetrazol-5-yl)-2,4-dimethyl-1H-pyrrol-3-yl)methanone], the 50% inhibitory concentration (IC50) in test [1] worked out at 1 nM; in test [2], 9.2 nM; in test [3], 2 nM. The inhibition in vivo at 25 mg/kg in test [4] (setting [8]) was 29%.
As to `CCc1nnc(-c2[nH]c(C)c(C(=O)c3cccc(OC)c3)c2C)o1` [Compound 193, (5-(5-ethyl-1,3,4-oxadiazol-2-yl)-2,4-dimethyl-1H-pyrrol-3-yl) (3-methoxyphenyl)methanone], the IC50 amounted to 2.1 nM in test [1], 4.3 nM in test [2] and 2.5 nM in test [3]. For the same molecule, in test [4] (setting [8]), the inhibition in vivo at 10 mg/kg turned out to be 33.9%.
In the case of `COc1ccc(C(=O)c2c(C)[nH]c(-c3nnc(C4CC4)o3)c2C)cc1Br` [Compound 198, (3-bromo-4-methoxyphenyl) (5-(5-cyclopropyl-1,3,4-oxadiazol-2-yl)-2,4-dimethyl-1H-pyrrol-3-yl)methanone], the concentration for half-maximal inhibition (IC50) in test [1] turned out to be 0.3 nM; in test [2], 1.8 nM; in test [3] it was 0.9 nM; in test [5], 0.21 nM; in test [6], 0.28 nM. Also, in test [6], the Resistance rate was 1.3. The inhibition in vivo at 10 mg/kg in test [4] (setting [8]) came to 51.6%.
Take `Cc1[nH]c(-c2nnn(CCO)n2)c(C)c1C(=O)c1cccc(Br)c1` [Compound 102, (3-bromophenyl)(5-(2-(2-hydroxyethyl)-2H-tetrazol-5-yl)-2,4-dimethyl-1H-pyrrol-3-yl)methanone]: the IC50 in test [1] came out at 8.7 nM; in test [2] it was 19.3 nM; in test [3], 9.5 nM; in test [5], 3.8 nM; in test [6] it was 4.3 nM. The molecule further registered a Resistance rate in test [6] of 1.1. The inhibition in vivo at 12.5 mg/kg in test [4] (setting [7]) is 43.4%. In test [4] (setting [7]), the inhibition in vivo at 25 mg/kg amounted to 61.1%. For the same molecule, the inhibition in vivo at 37.5 mg/kg in test [4] (37.5 mg/kg, Days 1, 3, 5, 8, 10, 12, 15, 17, 19) was 80.5%. For the same molecule, the inhibition in vivo at 40 mg/kg in test [4] (40 mg/kg, Days 1, 5, 9) is 96.5%.
Take `CCn1nnc(-c2[nH]c(C)c(C(=O)c3cccc(Br)c3)c2C)n1` [Compound 97, (3-bromophenyl)(5-(2-ethyl-2H-tetrazol-5-yl)-2,4-dimethyl-1H-pyrrol-3-yl)methanone]: the values for the concentration for half-maximal inhibition (IC50) in test [1], in test [2] and in test [3] were 3.5 nM, 2.4 nM and 4.1 nM, respectively. The inhibition in vivo at 30 mg/kg in test [4] (30 mg/kg, Days 1, 3, 5, 8, 10, 12, 15, 17, 19) stood at 31.2%.
As to `COc1ccc(Br)cc1C(=O)c1c(C)[nH]c(-c2nnc(C3CC3)o2)c1C` [Compound 240, (5-bromo-2-methoxyphenyl)(5-(5-cyclopropyl-1,3,4-oxadiazol-2-yl)-2,4-dimethyl-1H-pyrrol-3-yl)methanone], the figures for the IC50 in test [1], in test [2] and in test [3] were 1.1 nM, 2.1 nM and 1.9 nM, respectively. Besides, the inhibition in vivo at 12.5 mg/kg in test [4] (setting [7]) turned out to be 33.2%.
